Measured values taken from patent US20030036103A1, “Methods and compositions for diagnosis and treatment of vascular conditions” (priority 2001, published 2003).

Experiments:
Type in all cases: cell-based
[1] = tested on: human microvascular endothelial cells (HMVEC); experiment: TNFα-induced heparanase secretion by endothelial cells with signaling inhibitors (immunoblot); details: HMVEC incubated with TNFα and inhibitor for 16 h; wortmannin 0.1 and 0.5 μM, Ly294002 10 and 50 μM, SN50 10 μM, FPT inhibitor III 100 μM, PD98059 5 μM, SB203580 650 nM, ZM336372 200 nM, caspase inhibitor III 10 μM; FIG. 5
Description: Human microvascular endothelial cells (HMVEC) were grown in 48-well plates (˜90% confluency). To induce heparanase activity, culture media was replaced with 200 μl Dulbecco's modified Eagle's medium (DMEM) complemented with 1% bovine serum albumin (BSA), 100 ng biotinylated HS and TNFα with or without (FIG. 5A) P13 kinase inhibitors (wortmannin, 0.1 μM and 0.5 μM, or Ly294002, 10 μM and 50 μM), (FIG. 5B) NFκB inhibitor (SN50, 10 μM), several MAP kinase inhibitors (FIG. 5C)—either 100 μM FPT inhibitor III (FPT, inhibits Ras processing in cells), 5 μM MAP kinase (MEK), inhibitor PD98059 (PD), 650 nM p38 kinase inhibitor SB203580 (SB), 200 nM c-Raf inhibitor ZM336372 (ZM); or an inhibitor cocktail (Cl) that contains all of the four inhibitors; or broad-spectrum caspase inhibitor III (Casp-I, 10 μM) (FIG. 5D). The cells were incubated with TNFα and the inhibitors for 16 h. The culture media was collected and the secreted proteins were analyzed by SDS-PAGE and heparanase protein was detected by immunoblotting using polyclonal anti-human heparanase antibody.

[2] = tested on: human microvascular endothelial cells (HMVEC); experiment: Induction of endothelial heparanase protein by cytokines (immunoblot); details: TNFα
Description: Experiments were done on human microvascular endothelial cells (HMVEC) grown in 48-well plates (˜90% confluency). To induce heparanase activity, culture media was replaced with 200 μl Dulbecco's modified Eagle's medium (DMEM) complemented with 1% bovine serum albumin (BSA) and 100 ng biotinylated HS with or without stimulants (5 ng/ml TGFα, 1 ng/ml IL 1β, or 200 ng/ml VEGF). Cells were incubated in a cell culture incubator for 16-18 hours and the entire 200 μmedia was added to a streptavidin-coated plate and followed by standard color development assay as described in Example 2. The secreted proteins were analyzed by SDS-PAGE and heparanase protein was detected by immunoblotting using polyclonal anti-human heparanase antibody.
Human microvascular endothelial cells (HMVEC) were grown in 48-well plates (˜90% confluency). To induce heparanase activity, culture media was replaced with 200 μl Dulbecco's modified Eagle's medium (DMEM) complemented with 1% bovine serum albumin (BSA) and 100 ng biotinylated HS with 0, 0.02, 1.5 and 5 ng/ml of TNFα. The secreted heparanase was detected by immunoblotting the culture media with anti-human heparanase antibody.

endothelial cells = experiment: Heparanase expression in endothelial cells induced by lysolecithin

Row | Molecule | inhibition of TNFα-induced heparanase secretion [1] | further results
1 | COc1cccc(-c2cc(=O)c3ccccc3o2)c1N [PD98059] | do not inhibit | 
2 | C[S+]([O-])c1ccc(-c2nc(-c3ccncc3)c(-c3ccc(F)cc3)[nH]2)cc1 (stereo not drawn) [SB203580] | do not inhibit | 
3 | Cc1ccc(NC(=O)c2cccc(N(C)C)c2)cc1NC(=O)c1ccc(O)cc1 [ZM336372] | do not inhibit | 
4 | COC(=O)CC(NC(=O)OC(C)(C)C)C(=O)CF (stereo not drawn) [caspase inhibitor III] | blocked heparanase secretion | 
5 | TNFα |  | induction of heparanase in endothelial cells [2]: induces heparanase
6 | lysolecithin |  | induction of heparanase expression in endothelial cells (endothelial cells): induces heparanase expression
